Values quoted from earlier work, collected in patent publication US8318788B2, “Layered pharmaceutical formulations” (priority 2006, dated 2012).

Experiments:
[1] = patients presenting primary obesity

Structure (SMILES): CNCCC(Oc1ccc(C(F)(F)F)cc1)c1ccccc1 (stereo not drawn) [Fluoxetine, N-methyl-3-phenyl-3-[4-(trifluoromethyl)phenoxy]-propan-1-amine]
- bioavailability (in vivo): approximately 72%
- physiological half life (in vivo): about 24 hours
- plasma protein binding (mostly albumin): highly bound to plasma proteins

Structure (SMILES): Cc1cc2c(s1)Nc1ccccc1N=C2N1CCN(C)CC1 [Olanzapine, 2-methyl-4-(4-methyl-1-piperazinyl)-10H-thieno[2,3-b][1,5]benzodiazepine]
- effect of food on bioavailability (in vivo): not affected by food
- first pass metabolism (in vivo): extensive first pass metabolism
- kinetics (in vivo): linear kinetics
- time until steady state plasma concentrations are achieved (in vivo): about a week

Structure (SMILES): NS(=O)(=O)Cc1noc2ccccc12 [Zonisamide]
- inhibitory effect on carbonic anhydrase (carbonic anhydrase): weak inhibitory effect
- weight loss [1]: significant weight loss
